Reference: publication PMC11316111, “Mechanism of allosteric inhibition of human p97/VCP ATPase and its disease mutant by triazole inhibitors” (Communications Chemistry, 2024)
pEC50, pIC50: −log10 of the molar value. “And” between values parts separate entries of the source, which are not always exact repeats. Identical values can stand only once. Like-named read-outs stand apart in the source and are kept apart here. One block for each compound: values may come before it.

What was measured:
wild-type p97 (p97^WT) [1] = biological target: T1, wild-type p97 (p97^WT) (Homo sapiens, UniProt P55072); test: p97 ATPase activity (Biomol Green), wild-type p97; assay type: biochemical
T1 construct: made in house
Method: (§1) Results were calculated from 6 replicates using GraphPad Prism 7.0 (GraphPad Software, Boston, MA).

p97^R155H = biological target: T2, p97^R155H (Homo sapiens, UniProt P55072, R155H); test: p97 ATPase activity (Biomol Green), R155H mutant; assay type: biochemical
T2 construct: enabling us to acquire high-resolution biomolecular structures of full-length p97; made in house
Method: as §1

p97^P510S = biological target: T3, p97^P510S (Homo sapiens, UniProt P55072, P510S); test: p97 ATPase activity (Biomol Green), P510S mutant; assay type: biochemical
T3 construct: made in house
Method: as §1

p97^K512N = biological target: T4, p97^K512N (Homo sapiens, UniProt P55072, K512N); test: p97 ATPase activity (Biomol Green), K512N mutant; assay type: biochemical
T4 construct: made in house
Method: as §1

p97^N616F = biological target: T5, p97^N616F (Homo sapiens, UniProt P55072, N616F); test: p97 ATPase activity (Biomol Green), N616F mutant; assay type: biochemical
T5 construct: made in house
Method: as §1

p97^F618S = biological target: T6, p97^F618S (Homo sapiens, UniProt P55072, F618S); test: p97 ATPase activity (Biomol Green), F618S mutant; assay type: biochemical
T6 construct: made in house
Method: as §1

[2] = system: Ub^G76V-GFP/ODD-Luc HeLa cells; test: Cellular Ub^G76V-GFP accumulation assay; assay type: cell-based; conditions: Table S3, four replicates, read-out: UbG76V-GFP EC50
Method: ImageXpress high-content confocal microscope (Molecular Devices, LLC., San Jose, CA) was used to image cells at GFP channel. The percentage of Ub^G76V-GFP accumulation (%Acc) is calculated using the following formula: […]
The IC50 values were calculated by fitting the %Acc from four replicates with various concentrations of compounds using GraphPad Prism 7.0 (GraphPad, Boston, MA).

HCT116 p97WT = test: HCT116 proliferation assay (CellTiter Glo); assay type: cell-based; design: key to cellular viability of HCT116: % of DMSO control viability
Method: (§2) Anti-proliferative activity was measured using CellTiter Glo® Luminescent Cell Viability Assay (Promega G7572) according to the manufacturer’s procedure as described. RMPI1640 containing 5% FBS and 1% penicillin-streptomycin was used as a cell viability medium. A standard curve of HCT116 was generated for finding the linear relationship between the relative luminescence unit and the number of viable cells. […] 24 h after seeding, 8 μL of media containing 5% DMSO was added to each well, and the plate was incubated for an additional 48 h. To test the anti-proliferative activity of p97 inhibitors, we seeded HCT116 at 750 cells per well according to the linear range. […] After 48 h of treatment, cell viability was measured by adding CellTiter Glo reagent and reading the signal with a BioTek Synergy Neo plate reader (Agilent, Santa Clara, CA). The IC50 values were calculated from four replicates using the percentage of growth of treated cells versus the DMSO control. The results were analyzed using GraphPad Prism 7.0 (GraphPad, Boston, MA).

wild-type p97 (p97^WT) [3] = biological target: T1, wild-type p97 (p97^WT); design: method as in PMID 26822609; conditions: read-out: IC50 (p97 ATPase); cited from earlier work
HCT116 p97P510S = test: Cellular viability, resistant HCT116 p97P510S; assay type: cell-based
Method: (§3) Drug-resistant HCT116 cell lines were derived using the method previously described and with certain modifications[70],[99]. […] Drug-resistant clones were transferred into a new plate for passaging, and subsequently used to study drug resistance and identify the p97 mutations.
as §2

HCT116 p97K512N = test: Cellular viability, resistant HCT116 p97K512N; assay type: cell-based
Method: as §3, §2

HCT116 p97F618S = test: Cellular viability, resistant HCT116 p97F618S; assay type: cell-based; conditions: Table S3, four replicates
Method: as §3, §2

[4] = Homo sapiens, HCT-116, Table S3, cellular viability, four replicates, read-out: IC50 HCT116 p97WT
[5] = Homo sapiens, HCT-116, Table S3, four replicates

T6 sequence (P55072 whole entry F618S): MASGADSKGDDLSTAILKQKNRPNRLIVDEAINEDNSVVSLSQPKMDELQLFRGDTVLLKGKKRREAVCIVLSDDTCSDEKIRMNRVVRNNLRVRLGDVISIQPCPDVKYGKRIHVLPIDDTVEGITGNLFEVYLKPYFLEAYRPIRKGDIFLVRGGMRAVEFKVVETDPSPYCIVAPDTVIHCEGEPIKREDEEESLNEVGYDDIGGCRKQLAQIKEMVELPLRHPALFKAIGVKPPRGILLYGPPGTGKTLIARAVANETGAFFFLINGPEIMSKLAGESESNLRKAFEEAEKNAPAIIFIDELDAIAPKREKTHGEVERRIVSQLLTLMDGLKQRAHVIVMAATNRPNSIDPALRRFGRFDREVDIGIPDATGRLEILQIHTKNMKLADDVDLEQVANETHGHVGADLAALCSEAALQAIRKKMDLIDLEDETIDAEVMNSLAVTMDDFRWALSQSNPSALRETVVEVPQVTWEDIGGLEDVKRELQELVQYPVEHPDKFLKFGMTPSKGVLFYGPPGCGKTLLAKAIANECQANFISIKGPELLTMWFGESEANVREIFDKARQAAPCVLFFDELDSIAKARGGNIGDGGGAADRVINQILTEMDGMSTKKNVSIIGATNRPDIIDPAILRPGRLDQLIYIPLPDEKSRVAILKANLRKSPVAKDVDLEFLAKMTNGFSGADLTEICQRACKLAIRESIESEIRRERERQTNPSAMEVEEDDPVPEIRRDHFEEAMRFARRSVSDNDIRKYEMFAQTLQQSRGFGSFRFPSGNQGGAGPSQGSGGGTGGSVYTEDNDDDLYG
T3 sequence (P55072 whole entry P510S): as the sequence (P55072 whole entry F618S) above, with P510S, S618F counted along it
T5 sequence (P55072 whole entry N616F): as the sequence (P55072 whole entry F618S) above, with N616F, S618F counted along it
T4 sequence (P55072 whole entry K512N): as the sequence (P55072 whole entry F618S) above, with K512N, S618F counted along it
T1 sequence (P55072 whole entry): as the sequence (P55072 whole entry F618S) above, with S618F counted along it
T2 sequence (P55072 whole entry R155H): as the sequence (P55072 whole entry F618S) above, with R155H, S618F counted along it

pIC50 (wild-type p97 (p97^WT) [1]; 200 μM ATP, six replicates): 7.80
Ratio of IC50 values for mutants to IC50 values for wild-type p97, WT (wild-type p97 (p97^WT) [1]; WT/WT reference): 1
% ATPase activity (wild-type p97 (p97^WT) [1]; inhibitor 0.000905 µM): 102%
% ATPase activity (wild-type p97 (p97^WT) [1]; inhibitor 0.002716 µM): 90%
% ATPase activity (wild-type p97 (p97^WT) [1]; inhibitor 0.008148 µM): 71%
% ATPase activity (wild-type p97 (p97^WT) [1]; inhibitor 0.024444 µM): 31%
% ATPase activity (wild-type p97 (p97^WT) [1]; inhibitor 0.073333 µM): 23%
% ATPase activity (wild-type p97 (p97^WT) [1]; inhibitor 0.220000 µM): 14%
pIC50 (p97^R155H; 200 μM ATP, six replicates): 7.82
Ratio of IC50 values for mutants to IC50 values for wild-type p97, R155H (p97^R155H; R155H/WT): 0.9
increase of IC50 versus p97^WT, P510S (p97^P510S): more than 30 fold
pIC50 (p97^P510S; 200 μM ATP, six replicates): 5.55
Ratio of IC50 values for mutants to IC50 values for wild-type p97, P510S (p97^P510S; P510S/WT): 175
increase of IC50 versus p97^WT, K512N (p97^K512N): 7.5 fold
pIC50 (p97^K512N; 200 μM ATP, six replicates): 6.92
Ratio of IC50 values for mutants to IC50 values for wild-type p97, K512N (p97^K512N; K512N/WT): 7.5
increase of IC50 versus p97^WT, N616F (p97^N616F): more than 30 fold
pIC50 (p97^N616F; 200 μM ATP, six replicates): 5.27
Ratio of IC50 values for mutants to IC50 values for wild-type p97, N616F (p97^N616F; N616F/WT): 334
increase of IC50 versus p97^WT, F618S (p97^F618S): more than 30 fold
pIC50 (p97^F618S; 200 μM ATP, six replicates): 5.82
Ratio of IC50 values for mutants to IC50 values for wild-type p97, F618S (p97^F618S; F618S/WT): 94
pEC50 ([2]; Homo sapiens, HeLa): 6.18
pIC50 (HCT116 p97WT; [4]): 6.08
Compound: C[C@@H]1CN(C(=O)Cn2ncc(-c3cc(F)c(OCc4nnc(S[C@H]5C=CCCC5)n4-c4cccnc4)cc3F)n2)C[C@H](C)O1 [NSC819701]

Compound: CC(C)N1CCN(CCNC2CCN(c3cccc(-c4cc5cc(F)ccc5[nH]4)c3)CC2)CC1 [UPCDC30245]
pIC50 (wild-type p97 (p97^WT) [3]): 7.57

pEC50 [2]: 6.28
pIC50 (HCT116 p97WT; Table S3, cellular viability, four replicates, read-out: IC50 HCT116 p97WT): 6.17
pIC50 (HCT116 p97P510S; Table S3, four replicates): 5.02
pIC50 (HCT116 p97K512N; Table S3, four replicates): 4.60
pIC50 (HCT116 p97F618S): 4.68
Compound: CC1CCCC(C)N1CCOc1cc([N+](=O)[O-])ccc1C#N (centres unmarked) [UPCDC30733]

pEC50 ([2]; Homo sapiens, HeLa): 6.57
pIC50 (HCT116 p97WT; [4]): 6.54
pIC50 (HCT116 p97WT; Homo sapiens, HCT-116, Table S6, 48-hour treatment, read-out: Cell viability of HCT116 IC50): 6.53
pIC50 (HCT116 p97P510S; [5]): 4.99
pIC50 (HCT116 p97K512N; [5]): 5.14
Compound: CN1CCC(NC(=O)OCC#Cc2cc(F)c(OCc3nnc(S[C@H]4C=CCCC4)n3-c3cccnc3)cc2F)CC1 [UPCDC30766]
cellular viability of HCT116 (HCT116 p97WT; 0.06 µM, single replicates): 99 and 98 and 101
cellular viability of HCT116 (HCT116 p97WT; 0.17 µM, single replicates): 95 and 90
cellular viability of HCT116 (HCT116 p97WT; 0.52 µM, single replicates): 6
cellular viability of HCT116 (HCT116 p97WT; 14.0 µM, single replicates): 3
cellular viability of HCT116 (HCT116 p97WT; 42.1 µM, single replicates): 1
viability at 0.06 µM (HCT116 p97WT; Homo sapiens, HCT-116, 0.06 µM, single replicates, read-out: cellular viability of HCT116): 94%
viability at 0.17 µM (HCT116 p97WT; Homo sapiens, HCT-116, 0.17 µM, single replicates, read-out: cellular viability of HCT116): 97%
viability at 0.52 µM (HCT116 p97WT; Homo sapiens, HCT-116, 0.52 µM, single replicates, read-out: cellular viability of HCT116): 5%
viability at 1.6 µM (HCT116 p97WT; Homo sapiens, HCT-116, 1.60 µM, single replicates, read-out: cellular viability of HCT116): 4%
viability at 4.7 µM (HCT116 p97WT; Homo sapiens, HCT-116, 4.70 µM, single replicates, read-out: cellular viability of HCT116): 5%
viability at 14 µM (HCT116 p97WT; Homo sapiens, HCT-116, 14.0 µM, single replicates, read-out: cellular viability of HCT116): 4%
viability at 42.1 µM (HCT116 p97WT; Homo sapiens, HCT-116, 42.1 µM, single replicates, read-out: cellular viability of HCT116): 2%
